From patent US20240424019A1, “SHP1 MODIFIED DENDRITIC CELLS AND EXTRACELLULAR VESICLES DERIVED THEREFROM AND ASSOCIATED METHODS” (BOARD OF REGENTS, THE UNIVERSITY OF TEXAS SYSTEM, priority 2021, published 2024)

Assays:
EMT6 mammary tumors = assay: Orthotopic EMT6 mammary tumor model; format: in vivo, mouse
B16-GMCSF melanoma = B16-GMCSF melanoma model; format: in vivo, mouse
human IFN-γ+CD8+ T cells = assay: Coculture of human MoDCs with autologous T cells; format: cell-based; conditions: VitE-treated vs vehicle-treated autologous MoDCs
Method: FIG. 2A: Percentage of human IFN-γ^+CD8^+ T cells in CD8^+ T cells in coculture with vehicle or VitE-treated autologous MoDCs (n=3). FIG. 2B: Representative flow cytometric analysis and quantification of antigen-specific OT-1 T cell proliferation stimulated with OVA-loaded mouse BMDCs that were treated with vehicle or VitE at day 3. FIG. 2C: Tumor growth curves of orthotopic EMT6 tumor-bearing mice treated with vehicle (Ctrl), Vitamin E (VitE), or VitE plus Cyt c (10 mg/kg. i.v, every other day starting on day 3) to deplete DCs (n=8/group). The statistical significance is defined by P-value: *P<0.05, **P<0.01, ***P<0.001. ****P<0.0001. Human leukocyte concentrate (buffy coat) was collected from healthy blood donor volunteers by MD Anderson Blood Donor Center. Written informed consent was obtained from all participating blood donors and the use of anonymized leftover specimens for scientific purposes was approved by the Ethics Committee of the MD Anderson Cancer Center. For the generation of monocyte-derived dendritic cells (MoDCs), peripheral blood of healthy individuals was applied to a Ficoll gradient (BD), and mononuclear cells were freshly isolated and cultured in the dish in a humidified incubator for 1 hour to let monocytes adhere. After removing the medium with non-adherent cells, the adherent monocytes were collected through vigorous pipetting. […]

human iPSC-DCs = assay: Activation of human iPSC-derived DCs by flow cytometry; format: cell-based; conditions: vitamin E 50 μg/ml or TPI-1 1 μg/ml, 72 h, gated on CD11c+
From the text: FIG. 10A: Representative high magnification photomicrographs (100×, 200×, 400×) illustrating the morphology of colonies and individual cells of fully differentiated iPSC-derived DCs (iPSC-DCs) displaying characteristic DC morphology consisting of protrusions and veils of cytoplasm at the end of the differentiation procedure (day 23) after using the differentiation protocol for the addition and withdrawal of growth factors and cytokines. FIG. 10B: Phenotypic characterization of generated human iPSC-DCs. Representative flow cytometry analysis depicting the expression of DC lineage markers by iPSC-DCs gated on the CD11c+ population. Levels of expression of individual markers are shown as red histograms, while non-specific staining by isotype controls is shown as light blue histograms. FIG. 10C: Phenotypic characterization of human iPSC-DCs after treatment with vitamin E or TPI-1 to inhibit SHP1. Representative flow cytometry analysis (left panel) and quantification (right panel) depicting the expression of indicated activity markers by iPSC-DCs gated on the CD11c+population with the treatment of vehicle, vitamin E (50 μg/ml) or TPI-1 (1 μg/ml) for 72 h.
We explored the feasibility of differentiating populations of primary DCs from iPSCs and characterized the phenotype of iPSC-DC with the pharmacological inhibition of SHP1 by vitamin E or TPI-1. […]

B16-F10 melanoma = conditions: VitE and ICT combo-treatment
Method: For the melanoma tumor challenges, 2×10^5 B16-F10, B16-GMCSF, or B16-FLT3L cells were subcutaneously (s.c.) injected into the right flank of C57BL/6J mice on day 0.
Treatments were given as single agents or in combinations with the indicated regimens for each group. VitE (D-α-Tocopherol type VI, Cat.T1539, Sigma-Aldrich) was formulated in the vehicle (10% ethanol in sterile water) and administered by oral gavage once a day at a dose of 50 mg/kg body weight (100 μl at 10 mg/ml per day), corresponding to 400 to 600 mg/day in a human weighing 60 kg, which is within the range of doses recommended for supplement and pharmacological use. VitE treatment was initiated on day 4 ending until the ending point.
For tumor volume analysis, each tumor was measured every 3-4 days with a digital caliper beginning on day 7 after the challenge. Tumor volume was calculated using the formula V=(L×W^2)/2 and expressed as mm^3, where V is tumor volume, L is the length of the tumor (longer diameter) and W is the width of the tumor (shorter diameter). Mice were monitored for tumor growth and survival. Measurements were assessed manually by assessing the longest dimension (length, L) and the longest perpendicular dimension (width, W). Tumor volume was calculated using the formula: (L×W^2)/2.

[1] = VitE 50 mg/kg and ICT (anti-PD1) combo-treatment

## Cc1c(C)c2c(c(C)c1O)CC[C@@](C)(CCC[C@H](C)CCC[C@H](C)CCCC(C)C)O2 [VitE, D-α-Tocopherol]
EMT6 mammary tumors; BALB/c mice, n=10 per group, vehicle-treated 350 mm^3
  average tumor volume at day 15: 173 mm^3
EMT6 mammary tumors; CyTOF, day 15 post-implantation, VitE vs vehicle
  pY564-SHP1 level in TADCs: reduced the pY564-SHP1 level in TADCs
EMT6 mammary tumors; [1]
  therapeutic response: significantly improved therapeutic response
EMT6 mammary tumors; VitE alone vs vehicle-treated group
  tumor growth: reduced tumor growth
EMT6 mammary tumors; VitE treatment vs vehicle
  tumor infiltration of immune cells (CyTOF of CD45+ cells): increased the tumor infiltrations of CD11c+DCs and CD8+ T cells
B16-GMCSF melanoma; GVAX+VitE (50 mg/kg/day oral gavage day 4-20)
  tumor growth: significant tumor inhibition
B16-GMCSF melanoma; GVAX+VitE, day 14 post-implantation
  tumor-infiltrating GZMB+CD8+ T cells: increased tumor-infiltrating cytolytic GZMB CD8^+ T cells
B16-GMCSF melanoma; [1]
  therapeutic response: significantly improved therapeutic response
Human IFN-γ+CD8+ T cells
  IFNγ+CD8+ T cells in coculture: increased autologous IFNγ+CD8+ cytotoxic T cells
Human iPSC-DCs
  expression of DC activation markers on iPSC-DCs: increased expression of DC activation markers CD40 and CD86
B16-F10 melanoma
  therapeutic effect: no therapeutic effect
